Experimental data taken from ChEMBL document CHEMBL1148819, “Structure, derivatization, and antitumor activity of new griseusins from Nocardiopsis sp” (J Med Chem, 2007).

Assays:
[1] = Cytotoxicity against MAXF1162 cells after 2 to 7 days by clonogenic assay; type: functional, cell-based; conditions: Homo sapiens
[2] = Cytotoxicity against MEXF462NL cells after 4 days by monolayer assay; type: functional, cell-based; conditions: Homo sapiens, MEXF 462NL, 96 h
[3] = Cytotoxicity against RXF944L cells after 4 days by monolayer assay; type: functional, cell-based; conditions: Homo sapiens, RXF 944L, 96 h
RXF 393 [4] = test: Cytotoxicity against RXF393 cells after 2 to 7 days by clonogenic assay; type: functional, cell-based; conditions: Homo sapiens
MDA-MB-468 = test: Cytotoxicity against MDA-MB-468 cells after 4 days by monolayer assay; type: functional, cell-based; conditions: Homo sapiens, MDA-MB-468, 96 h
[5] = Cytotoxicity against PRXF22Rv1 cells after 4 days by monolayer assay; type: functional, cell-based; conditions: Homo sapiens, 96 h
PAXF736 = test: Cytotoxicity against PAXF736 cells after 2 to 7 days by clonogenic assay; type: functional, cell-based; conditions: Homo sapiens
[6] = Cytotoxicity against CXF158 cells after 2 to 7 days by clonogenic assay; type: functional, cell-based; conditions: Homo sapiens
[7] = Cytotoxicity against RXF468L cells after 4 days by monolayer assay; type: functional, cell-based; conditions: Homo sapiens, 96 h
MDA-MB-231 = test: Cytotoxicity against MDA-MB-231 cells after 4 days by monolayer assay; type: functional, cell-based; conditions: Homo sapiens, MDA-MB-231, 96 h
[8] = Cytotoxicity against MAXF401 cells after 4 days by monolayer assay; type: functional, cell-based; conditions: Homo sapiens, MAXF401, 96 h
CCRF-CEM = test: Cytotoxicity against CCRF-CEM cells after 2 to 7 days by clonogenic assay; type: functional, cell-based; conditions: Homo sapiens
MEXF276L = test: Cytotoxicity against MEXF276L cells after 4 days by monolayer assay; type: functional, cell-based; conditions: Homo sapiens, 96 h
[9] = Cytotoxicity against human umbilical cord hematopoietic stem cells after 12 days by clonogenic assay; type: cell-based; conditions: 288 h
[10] = Cytotoxicity against CXF1103 cells after 2 to 7 days by clonogenic assay; type: functional, cell-based; conditions: Homo sapiens
[11] = Cytotoxicity against MAXF583 cells after 2 to 7 days by clonogenic assay; type: functional, cell-based; conditions: Homo sapiens
RXF 393 [12] = test: Cytotoxicity against RXF393NL cells after 4 days by monolayer assay; type: functional, cell-based; conditions: Homo sapiens, RXF 393NL, 96 h
[13] = Cytotoxicity against BXF1218L cells after 4 days by monolayer assay; type: functional, cell-based; conditions: Homo sapiens, BXF 1218L, 96 h
[14] = Cytotoxicity against RXF944LX cells after 2 to 7 days by clonogenic assay; type: functional, cell-based; conditions: Homo sapiens, RXF 944LX
MEXF989 = test: Cytotoxicity against MEXF989 cells after 2 to 7 days by clonogenic assay; type: functional, cell-based; conditions: Homo sapiens, MEXF 989
[15] = Cytotoxicity against MEXF514L cells after 4 days by monolayer assay; type: functional, cell-based; conditions: Homo sapiens, MEXF 514L, 96 h
[16] = Cytotoxicity against LXF-1121L cells after 4 days by monolayer assay; type: functional, cell-based; conditions: Homo sapiens, 96 h
[17] = Cytotoxicity against MEXF394NL cells after 4 days by monolayer assay; type: functional, cell-based; conditions: Homo sapiens, MEXF 394NL, 96 h
[18] = Cytotoxicity against CXF264 cells after 2 to 7 days by clonogenic assay; type: functional, cell-based; conditions: Homo sapiens
MCF7 = test: Cytotoxicity against MCF7 cells after 4 days by monolayer assay; type: functional, cell-based; conditions: Homo sapiens, MCF7, 96 h
[19] = Cytotoxicity against MEXF520L cells after 4 days by monolayer assay; type: functional, cell-based; conditions: Homo sapiens, MEXF 520L, 96 h
PAXF546 = test: Cytotoxicity against PAXF546 cells after 2 to 7 days by clonogenic assay; type: functional, cell-based; conditions: Homo sapiens
[20] = Cytotoxicity against MEXF535 cells after 2 to 7 days by clonogenic assay; type: functional, cell-based; conditions: Homo sapiens

`C[C@@H]1CC(=O)[C@@H](O)[C@]2(O1)O[C@@H]1CC(=O)O[C@@H]1C1=C2C(=O)c2c(O)cccc2C1=O` showed an IC50 [1] of 455 nM, an IC50 [2] of 87 nM and an IC50 [3] of 95 nM. The IC50 (RXF 393 [4]) was 375 nM, the IC50 (MDA-MB-468) was 150 nM and the IC50 [5] was 177 nM. For the same molecule, the IC50 (PAXF736) was 614 nM, the IC50 [6] was 257 nM and the IC50 [7] was 95 nM. The IC50 (MDA-MB-231) was 150 nM, the IC50 [8] was 150 nM and the IC50 (CCRF-CEM) was 132 nM. It also gave an IC50 (MEXF276L) of 87 nM, an IC50 [9] of 1190 nM and an IC50 [10] of 257 nM. The IC50 [11] was 195 nM, the IC50 (RXF 393 [12]) was 95 nM and the IC50 [13] was 140 nM. For the same molecule, the IC50 [14] was 290 nM, the IC50 (MEXF989) was 295 nM and the IC50 [15] was 87 nM. For the same molecule, the IC50 [16] was 207 nM, the IC50 [17] was 87 nM and the IC50 [18] was 257 nM. It also gave an IC50 (MCF7) of 150 nM, an IC50 [19] of 87 nM and an IC50 (PAXF546) of 420 nM. For the same molecule, the IC50 [20] was 137 nM.
